Data: patent US11312676B2, “Small molecule stimulators of steroid receptor coactivator proteins and their use in the treatment of cancer” (BAYLOR COLLEGE OF MEDICINE, priority 2014, dated 2022)

Key:
[1] = molecular target: T1, SRC-2 (Homo sapiens, UniProt Q15596); experiment: Gal4 luciferase reporter assay (pBIND-SRC-2 + pG5-LUC) in HeLa cells; format: cell-based; conditions: 24-hour treatment, 5-8 μM, maximum over SRC-1/-2/-3
T1 construct: expressed in transfected cells; host or cells: HeLa
Experimental: (§1) The constructs expressing the Gal4 responsive luciferase reporter (pG5-luc), Gal4 DBD fusion with SRC-1, […] (pBIND-SRC-1/-2/-3), MMP2 or MMP13 promoter driven luciferase reporter (MMP2-luc, MMP13-luc) were prepared. Twenty-four hours before transfection, HeLa cells were plated in 24-well dishes. The indicated expression plasmids were transfected into cells using Lipofectamine 2000 according to the manufacturer's instructions.
(§2) After various compound treatments, cells were lysed in luciferase lysis buffer and assayed for luciferase activity using the ONE-Glo luciferase assay system (Promega, Madison, Wis.). All luciferase activities were normalized to protein concentration determined by Bradford assay (Bio-Rad, Hercules, Calif.).

[2] = molecular target: T2, SRC-3 (Homo sapiens, UniProt Q9Y6Q9); experiment: Gal4 luciferase reporter assay (pBIND-SRC-3 + pG5-LUC) in HeLa cells; format: cell-based
T2 construct: expressed in transfected cells; host or cells: HeLa
T2 sequence (Q9Y6Q9 whole entry, the tested form may be a part): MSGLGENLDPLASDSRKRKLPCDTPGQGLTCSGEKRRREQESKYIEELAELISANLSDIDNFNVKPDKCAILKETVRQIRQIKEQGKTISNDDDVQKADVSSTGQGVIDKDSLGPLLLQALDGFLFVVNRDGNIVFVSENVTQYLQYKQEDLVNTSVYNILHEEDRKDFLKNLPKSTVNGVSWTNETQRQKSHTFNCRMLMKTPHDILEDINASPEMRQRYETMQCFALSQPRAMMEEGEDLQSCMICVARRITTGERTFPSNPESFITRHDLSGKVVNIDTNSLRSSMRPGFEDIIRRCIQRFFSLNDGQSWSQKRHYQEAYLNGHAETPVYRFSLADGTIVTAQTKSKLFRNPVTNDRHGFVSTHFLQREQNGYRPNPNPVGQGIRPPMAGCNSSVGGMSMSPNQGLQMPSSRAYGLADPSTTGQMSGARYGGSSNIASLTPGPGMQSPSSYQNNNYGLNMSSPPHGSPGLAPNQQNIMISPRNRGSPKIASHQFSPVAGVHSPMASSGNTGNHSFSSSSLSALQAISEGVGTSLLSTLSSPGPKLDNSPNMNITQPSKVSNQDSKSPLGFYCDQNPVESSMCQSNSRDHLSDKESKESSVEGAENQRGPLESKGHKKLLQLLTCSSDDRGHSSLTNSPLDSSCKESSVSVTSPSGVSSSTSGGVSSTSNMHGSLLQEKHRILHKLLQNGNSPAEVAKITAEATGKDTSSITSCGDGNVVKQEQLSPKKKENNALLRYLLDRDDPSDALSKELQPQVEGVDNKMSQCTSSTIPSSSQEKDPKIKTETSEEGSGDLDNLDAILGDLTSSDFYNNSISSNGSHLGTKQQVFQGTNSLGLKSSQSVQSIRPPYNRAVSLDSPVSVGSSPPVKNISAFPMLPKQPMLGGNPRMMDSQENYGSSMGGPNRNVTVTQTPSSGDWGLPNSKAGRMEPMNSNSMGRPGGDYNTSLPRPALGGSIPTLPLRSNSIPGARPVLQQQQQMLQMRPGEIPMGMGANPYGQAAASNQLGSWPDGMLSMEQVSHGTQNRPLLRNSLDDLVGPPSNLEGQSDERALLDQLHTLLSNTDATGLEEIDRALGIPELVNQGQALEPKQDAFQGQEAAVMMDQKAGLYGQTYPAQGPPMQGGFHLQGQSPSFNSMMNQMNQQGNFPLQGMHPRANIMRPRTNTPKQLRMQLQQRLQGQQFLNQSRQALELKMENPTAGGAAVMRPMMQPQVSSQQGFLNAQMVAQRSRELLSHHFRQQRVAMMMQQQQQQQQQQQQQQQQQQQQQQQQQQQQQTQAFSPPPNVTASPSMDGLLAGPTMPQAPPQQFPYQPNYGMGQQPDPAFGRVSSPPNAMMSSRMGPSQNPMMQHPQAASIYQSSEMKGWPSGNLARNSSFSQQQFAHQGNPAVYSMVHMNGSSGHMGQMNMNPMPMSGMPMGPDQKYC
Experimental: as §1, §2
HeLa cells were transfected with a Gal4 responsive luciferase reporter (pG5-luc) and a construct encoding SRC-1, SRC-2 or SRC-3 fused with the DNA binding domain of Gal4 (pBIND-SRC-1, pBIND-SRC-2 or pBIND-SRC-3) were treated with the indicated compounds.

[3] = test system: PGC-1α; experiment: Gal4-PGC-1α + pG5-LUC luciferase assay in HeLa cells; format: cell-based; conditions: 24 hours, 2-10 μM
[4] = test system: MMP2 promoter; experiment: MMP2-luc reporter with SRC-3 expression vector in HeLa cells; format: cell-based; conditions: 24 hours
Experimental: as §1, §2

[5] = test system: MMP13 promoter; experiment: MMP13-luc reporter with SRC-3 expression vector in HeLa cells; format: cell-based; conditions: 24 hours
Experimental: as §1, §2

[6] = molecular target: T3, basic helix-loop-helix (bHLH) domain of SRC-3 (Homo sapiens, UniProt Q9Y6Q9); experiment: Fluorescence spectroscopy, intrinsic fluorescence of GST SRC-3 bHLH; format: binding; conditions: 1.5 μM GST SRC-3 bHLH
T3 construct: MCB-613 also affected the fluorescence of the basic helix-loop-helix (bHLH) domain; made in house
T3 sequence (Q9Y6Q9 25-82 limits assumed): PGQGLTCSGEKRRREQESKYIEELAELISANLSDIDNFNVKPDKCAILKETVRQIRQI
Experimental: (§3) Fluorescence spectrometric measurements were performed on a SLM 48000S fluorescence spectrophotometer (SLM-Aminco, Rochester, N.Y.) and an Agilent Cary Eclipse Fluorescence spectrophotometer (Agilent Technologies, Inc., Santa Clara, Calif.) using the GST fusion proteins of different portions of SRC-3 expressed and purified. A total of 1.5 μM of GST SRC-3 RID, CID or bHLH was placed in a fluorescence cuvette and excited by UV light at a wavelength of 278 nm with a 2 nm bandwidth and the emission spectra were recorded from 290 nm to above 500 nm with a bandwidth of 4 nm. The aliquot size of test compound was maintained below 5% of the total sample volume in order to minimize the effects of dilution.

[7] = molecular target: T4, CBP interacting domain (CID) of SRC-3 (Homo sapiens, UniProt Q9Y6Q9); experiment: Fluorescence spectroscopy, intrinsic fluorescence quenching of GST SRC-3 CID; format: binding; conditions: 1.5 μM GST SRC-3 CID
T4 construct: made in house
T4 sequence (Q9Y6Q9 1023-1093 limits assumed): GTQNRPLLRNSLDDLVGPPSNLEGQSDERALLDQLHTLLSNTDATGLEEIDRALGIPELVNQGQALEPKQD
Experimental: as §3

[8] = test system: H1299 (lung) cells; experiment: MTS cell viability assay, H1299; format: cell-based; conditions: H1299, 48 hours
Experimental: (§4) Cell lines were maintained in DMEM (HeLa, MCF-7, HepG2), RPMI 1640 (H1299), or DMEM/F12 (PC-3) supplemented with 10% fetal calf serum, penicillin and streptomycin (100 U/ml). Primary mouse hepatocytes were isolated and cultured. Mouse embryonic fibroblasts (MEF) were cultured in DMEM. All cells were maintained at 37° C. under 5% CO2.
(§5) Cells were seeded in 96-well plates and allowed to reach 70% to 80% confluence. After indicated compound treatments, relative numbers of viable cells were measured by MTS assay using the Cell Titer 96 Aqueous One Solution Cell Proliferation Assay (Promega).

[9] = test system: MEF cells; experiment: MTS cell viability assay, mouse embryonic fibroblasts; format: cell-based; conditions: 48 hours
Experimental: as §4, §5

[10] = test system: intracellular ROS levels; experiment: Measurement of reactive oxygen species with CM-H2DCFDA; format: cell-based; conditions: 30 minutes treatment
Experimental: Cells were loaded with 10 μM general ROS indicator CM-H2DCFDA in serum free DMEM for 30 minutes at 37° C. in the dark. After a 5-minute recovery in complete DMEM, cells were treated with indicated concentrations of MCB-613 for 30 minutes, then fixed and examined by fluorescence microscopy.

[11] = test system: human pediatric GBM tumor; experiment: Patient derived xenograft pediatric GBM model, survival; format: in vivo; conditions: treated every day for 14 days, tumor cells in mouse brainstem
Experimental: A tumor from a human patient was transferred directly into a mouse host (patient derived xenograft) without culturing on a plastic substrate. Tumor cells (50,000) were injected into mouse brainstems and allowed to proliferate for 14 days. Animals were treated every day with either MCB-613 (test group) or vehicle (control group) for 14 days. The animals were then housed with no further experimental manipulation. Overall survival was recorded from the experimental and control groups.

[12] = test system: HeLa cells; experiment: MTS cell viability assay, HeLa cells; format: cell-based; conditions: SRC-3 KO vs WT HeLa, 24 hours
[13] = test system: HeLa cells; experiment: Cytoplasmic vacuolization of cancer cells; format: cell-based; conditions: HeLa, MCF-7 or MDA-MB-231 cells
[14] = test system: SRC-1, SRC-2 and SRC-3 protein levels; experiment: Immunoblot of SRC protein levels in HeLa cells; format: cell-based; conditions: 24 hours
Experimental: For Western blotting, cells were harvested and lysed in lysis buffer (50 mM Tris, pH 8.0, 150 mM NaCl, 10% glycerol, 0.5% NP40, protease and phosphatase inhibitor) and then centrifuged for 15 min at 14000 rpm at 4° C. After total cellular protein concentration was determined by Bradford analysis (Bio-Rad, Hercules, Calif.), protein lysates were loaded onto and resolved by sodium dodecyl sulfate-polyacrylamide gel electrophoresis (SDS-PAGE) and transferred to PVDF membranes (BioRad) which were blocked and incubated with indicated antibodies. For immunoprecipitation, 10 μg of plasmid encoding FLAG-SRC-3 was transfected into HeLa cells with 90% confluence in one 10 cm plate with lipofectamine 2000 (Invitrogen). Twenty-four hours after transfection, the cells were treated with MCB-613 for one hour and lysed with lysis buffer (25 mM Tris-Cl pH7.5, 150 mM NaCl, 5% glycerol, 1 mM EDTA, 1% Triton X-100, protease and phosphatase inhibitor) at 4° C. After a 30-second sonication, the lysate was cleared by centrifugation at 14000 rpm at 4° C. for 15 minutes and was incubated with anti-Flag-M2 agarose affinity gel (Sigma) for four hours. The agarose gel was washed four times with washing buffer (25 mM Tris pH 8.0, 150 mM NaCl, 1 mM EDTA, 1% Triton X-100) and resuspended with SDS loading buffer for Western blotting.

[15] = molecular target: SRC-1 (Homo sapiens, UniProt Q15788); experiment: Gal4 luciferase reporter assay (pBIND-SRC-1 + pG5-LUC) in HeLa cells; format: cell-based; parameters: expressed in transfected cells; host or cells: HeLa; conditions: 24-hour treatment, 5-8 μM, maximum over SRC-1/-2/-3
Sequence of SRC-1 (Q15788 whole entry, the tested form may be a part): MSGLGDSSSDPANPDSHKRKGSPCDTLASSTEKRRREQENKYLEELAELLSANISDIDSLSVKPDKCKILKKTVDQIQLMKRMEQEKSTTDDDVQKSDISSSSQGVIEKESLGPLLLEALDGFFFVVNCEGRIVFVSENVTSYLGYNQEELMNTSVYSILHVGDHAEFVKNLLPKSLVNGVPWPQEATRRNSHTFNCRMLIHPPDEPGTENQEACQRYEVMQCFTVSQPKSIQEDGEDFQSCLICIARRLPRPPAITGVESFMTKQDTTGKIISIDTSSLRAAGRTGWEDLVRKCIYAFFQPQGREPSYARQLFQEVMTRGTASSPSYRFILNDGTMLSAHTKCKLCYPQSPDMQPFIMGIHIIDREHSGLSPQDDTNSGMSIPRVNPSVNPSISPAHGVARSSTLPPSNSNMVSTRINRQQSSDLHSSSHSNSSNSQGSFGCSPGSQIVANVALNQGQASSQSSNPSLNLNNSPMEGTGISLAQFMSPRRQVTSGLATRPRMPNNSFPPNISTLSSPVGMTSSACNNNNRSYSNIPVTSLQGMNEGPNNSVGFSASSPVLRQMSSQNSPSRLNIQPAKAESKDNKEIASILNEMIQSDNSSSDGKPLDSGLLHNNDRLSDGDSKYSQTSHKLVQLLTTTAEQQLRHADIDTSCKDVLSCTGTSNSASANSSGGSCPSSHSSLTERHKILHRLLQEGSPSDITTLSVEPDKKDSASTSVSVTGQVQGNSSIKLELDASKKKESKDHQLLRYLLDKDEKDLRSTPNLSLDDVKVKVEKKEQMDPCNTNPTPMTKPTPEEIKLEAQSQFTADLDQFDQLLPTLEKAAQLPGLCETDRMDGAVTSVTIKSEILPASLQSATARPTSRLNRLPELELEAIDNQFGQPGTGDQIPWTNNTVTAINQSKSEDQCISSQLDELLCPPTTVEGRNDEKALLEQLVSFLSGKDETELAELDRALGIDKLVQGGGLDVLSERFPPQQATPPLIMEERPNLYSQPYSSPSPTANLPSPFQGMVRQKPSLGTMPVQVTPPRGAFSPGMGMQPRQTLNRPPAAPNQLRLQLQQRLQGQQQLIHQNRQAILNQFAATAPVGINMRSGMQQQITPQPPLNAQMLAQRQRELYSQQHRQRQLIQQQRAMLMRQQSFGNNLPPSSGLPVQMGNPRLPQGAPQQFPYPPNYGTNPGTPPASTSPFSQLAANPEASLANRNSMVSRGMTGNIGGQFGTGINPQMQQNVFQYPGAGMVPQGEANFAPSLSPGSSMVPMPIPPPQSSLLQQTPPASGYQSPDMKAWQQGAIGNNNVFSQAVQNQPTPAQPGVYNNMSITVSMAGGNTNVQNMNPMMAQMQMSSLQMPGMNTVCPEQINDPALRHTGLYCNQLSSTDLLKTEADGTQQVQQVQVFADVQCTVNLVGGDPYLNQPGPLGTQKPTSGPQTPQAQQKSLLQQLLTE
Experimental: as §1, §2

T1 sequence (Q15596 whole entry, the tested form may be a part): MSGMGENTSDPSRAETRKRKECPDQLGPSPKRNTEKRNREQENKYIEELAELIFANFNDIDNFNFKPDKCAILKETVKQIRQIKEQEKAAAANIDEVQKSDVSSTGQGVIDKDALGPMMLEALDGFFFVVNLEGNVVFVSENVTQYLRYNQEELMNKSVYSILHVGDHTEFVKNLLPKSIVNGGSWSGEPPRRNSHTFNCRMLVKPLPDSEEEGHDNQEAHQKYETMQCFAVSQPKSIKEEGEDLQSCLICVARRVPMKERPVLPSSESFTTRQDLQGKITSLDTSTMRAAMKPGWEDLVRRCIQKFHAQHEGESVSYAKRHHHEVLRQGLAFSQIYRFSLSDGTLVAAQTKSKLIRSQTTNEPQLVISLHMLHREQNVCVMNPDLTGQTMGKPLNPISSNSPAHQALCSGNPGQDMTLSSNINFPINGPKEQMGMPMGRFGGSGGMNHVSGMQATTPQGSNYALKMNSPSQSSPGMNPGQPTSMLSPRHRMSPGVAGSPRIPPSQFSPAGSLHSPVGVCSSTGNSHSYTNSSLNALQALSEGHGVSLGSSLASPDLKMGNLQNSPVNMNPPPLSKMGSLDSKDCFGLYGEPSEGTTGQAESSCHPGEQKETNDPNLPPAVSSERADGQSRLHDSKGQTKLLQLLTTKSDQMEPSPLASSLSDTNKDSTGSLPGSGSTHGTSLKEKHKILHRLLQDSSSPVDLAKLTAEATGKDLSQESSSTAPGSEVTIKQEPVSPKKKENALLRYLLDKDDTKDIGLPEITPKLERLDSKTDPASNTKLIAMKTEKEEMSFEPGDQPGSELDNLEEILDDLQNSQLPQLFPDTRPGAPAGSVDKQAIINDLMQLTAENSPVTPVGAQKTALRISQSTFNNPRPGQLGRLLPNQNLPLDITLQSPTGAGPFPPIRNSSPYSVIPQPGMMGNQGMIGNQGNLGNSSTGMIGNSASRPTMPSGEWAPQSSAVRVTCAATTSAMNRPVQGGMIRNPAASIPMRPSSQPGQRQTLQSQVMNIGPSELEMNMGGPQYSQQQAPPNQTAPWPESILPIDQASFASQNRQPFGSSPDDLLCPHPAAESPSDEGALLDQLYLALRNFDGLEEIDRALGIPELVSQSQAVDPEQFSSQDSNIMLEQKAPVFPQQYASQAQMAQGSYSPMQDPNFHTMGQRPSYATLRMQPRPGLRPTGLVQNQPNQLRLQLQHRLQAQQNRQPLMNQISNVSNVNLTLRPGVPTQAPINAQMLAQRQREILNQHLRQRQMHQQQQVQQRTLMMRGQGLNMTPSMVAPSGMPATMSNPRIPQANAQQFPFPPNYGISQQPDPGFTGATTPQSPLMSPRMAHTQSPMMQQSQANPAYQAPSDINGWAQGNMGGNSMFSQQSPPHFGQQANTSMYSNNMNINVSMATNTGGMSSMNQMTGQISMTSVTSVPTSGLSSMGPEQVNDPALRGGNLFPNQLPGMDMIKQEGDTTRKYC

With `CCC1CC(=Cc2cccnc2)C(=O)C(=Cc2cccnc2)C1` (stereo not shown) [MCB-613, 4-Ethyl-2,6-bis-pyridin-3-ylmethylene-cyclohexanone] the “induction in the activity of pBIND-SRC-2” value [1] was at most 160 fold, the “induction in the activity of pBIND-SRC-3” value ([2]; 24-hour treatment, 5-8 μM, maximum over SRC-1/-2/-3) was at most 160 fold and the “SRC activity after 4 hours of treatment” value ([2]; 4 hours, 6-10 μM) was “significant increase”. For the same compound, the “stimulation of GAL4-PGC-1α coactivator fusion protein” value [3] was “failing to stimulate”, the “SRC-3's coactivation of the MMP2 promoter” value [4] was “greatly enhanced” and the “SRC-3's coactivation of the MMP13 promoter” value [5] was “greatly enhanced”. The “concentration affecting the fluorescence of the bHLH domain” value [6] was 2 µM, the “concentration required to detect fluorescence quenching of the CID” value [7] was “at least 20 μM” and the “cytotoxicity, cell viability” value [8] was “efficiently kill”. The “cytotoxicity to normal cells” value [9] was “resistant”, the “intracellular ROS levels” value [10] was “rapid and marked increase” and the overall survival [11] was “extends survival time”. The “viability of SRC-3 KO HeLa cells compared with WT cells” value [12] was “less affected”, the “vacuolization in cancer cells” value [13] was “induced extensive vacuolization” and the “SRC-1, SRC-2 and SRC-3 protein levels” value [14] was “decreases”. For the same compound, the “induction in the activity of pBIND-SRC-1” value [15] was at most 160 fold.
